# Measurements taken from patent US8106055B2, “Substituted amide compounds” (Gruenenthal GmbH, priority 2007, dated 2012).
# Target: T1, human μ opiate receptor (Homo sapiens, UniProt P35372)
# T1 construct: purchased PerkinElmer Life Sciences, Zaventem, Belgium RB-HOM; host or cells: CHO-K1 cells (membrane preparation)
# Assay: Affinity for the human μ opiate receptor ([3H]-naloxone displacement, CHO-K1 receptor membrane preparation, SPA)
# Format: binding
# Settings: test concentration of 1 μM
# Outline: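 CHO-K1 membranes expressing human μ receptor incubated 90 min at room temperature with 1 nmol/l [3H]-naloxone and WGA-SPA beads in 50 mmol/l Tris-HCl, 0.06% BSA; 100 μmol/l naloxone defines non-specific binding. Values are % inhibition of specific binding at 1 μM; IC50 converted to Ki by Cheng-Prusoff.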
# T1 sequence (P35372 whole entry): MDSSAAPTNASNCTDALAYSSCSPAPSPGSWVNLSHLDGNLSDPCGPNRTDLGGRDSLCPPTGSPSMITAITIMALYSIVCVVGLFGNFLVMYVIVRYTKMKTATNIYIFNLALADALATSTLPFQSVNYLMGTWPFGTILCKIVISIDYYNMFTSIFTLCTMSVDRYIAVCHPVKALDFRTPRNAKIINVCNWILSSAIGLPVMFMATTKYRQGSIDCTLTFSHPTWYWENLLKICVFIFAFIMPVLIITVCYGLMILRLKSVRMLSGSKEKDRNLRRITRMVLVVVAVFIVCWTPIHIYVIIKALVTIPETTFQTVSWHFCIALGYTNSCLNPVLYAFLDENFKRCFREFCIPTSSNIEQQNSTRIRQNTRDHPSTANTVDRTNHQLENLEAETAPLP
row,SMILES,"μ (binding on the μ opioid receptor, % inhibition) [%]"
1,CN(C)C(c1ccc(F)cc1)C1CCC(CNC(=O)COC2CCN(S(=O)(=O)c3ccccc3)CC2)CC1 (stereo not shown) [Example 568],11
2,COc1cc(C)c(S(=O)(=O)N(CCOCC(=O)NCCC2CCC(C(c3ccc(Cl)cc3)N(C)C)CC2)Cc2ccccc2)c(C)c1 (stereo not shown) [Example 569],10
3,COc1ccc(S(=O)(=O)N(C)CCOCC(=O)NCC2CCC(C(CCc3ccccc3)N(C)C)CC2)cc1OC (stereo not shown) [Example 571],14
4,COc1ccc(S(=O)(=O)N2CCCC2COCC(=O)NCC2CCC(C(CCc3ccccc3)N(C)C)CC2)cc1 (stereo not shown) [Example 572],29
5,CN(C)C(CCc1ccccc1)C1CCC(CNC(=O)COC2CCN(S(=O)(=O)c3ccccc3)C2)CC1 (stereo not shown) [Example 573],23
6,CN(C)C(CCc1ccccc1)C1CCC(CNC(=O)COC2CCN(S(=O)(=O)c3ccc(F)cc3)C2)CC1 (stereo not shown) [Example 574],18
7,CN(C)C(c1ccc(Cl)cc1)C1CCC(CCNC(=O)COCCN(C)S(=O)(=O)c2ccc(OC(F)(F)F)cc2)CC1 (stereo not shown) [Example 575],11
8,COc1cc(C)c(S(=O)(=O)N(CCOCC(=O)NCCC2CCC(C(c3ccc(Cl)cc3)N(C)C)CC2)Cc2ccccc2)c(C)c1C (stereo not shown) [Example 576],15
9,CN(C)C(CCc1ccccc1)C1CCC(CNC(=O)COC2CCN(S(=O)(=O)c3ccccc3)CC2)CC1 (stereo not shown) [Example 578],12
10,CN(C)C(c1ccc(F)cc1)C1CCC(CNC(=O)COCCC2CCN(S(=O)(=O)c3ccccc3)CC2)CC1 (stereo not shown) [Example 583],7
11,CN(C)C(c1ccc(Cl)cc1)C1CCC(CNC(=O)COCCC2CCN(S(=O)(=O)c3ccccc3)CC2)CC1 (stereo not shown) [Example 584],7
12,CN(C)C(c1ccc(F)cc1)C1CCC(CCNC(=O)COCCN(C)S(=O)(=O)c2ccc(Cl)cc2Cl)CC1 (stereo not shown) [Example 586],3
13,Cc1cc(C)c(S(=O)(=O)N(C)CCOCC(=O)NCCC2CCC(C(c3cccc(F)c3)N(C)C)CC2)c(C)c1 (stereo not shown) [Example 587],−5

# Same assay, conditions: test concentration of 1 μM; 1 µM
row,SMILES,"μ (binding on the μ opioid receptor, % inhibition) [%]"
1,COc1ccc(S(=O)(=O)N2CCCCC2COCC(=O)NCC2CCC(C(CCc3ccccc3)N(C)C)CC2)cc1OC (stereo not shown) [Example 570],16
2,CN(C)C(CCc1ccccc1)C1CCC(CNC(=O)COCCN(C)S(=O)(=O)c2c(Cl)cccc2Cl)CC1 (stereo not shown) [Example 580],13
3,COc1ccc(S(=O)(=O)N2CCCCC2COCC(=O)NCCC2CCC(C(c3cccc(F)c3)N(C)C)CC2)cc1OC (stereo not shown) [Example 581],9
